Patent US20100173943A1, “INSECTICIDAL COMPOSITIONS WITH IMPROVED ACTION” (BAYER CROPSCIENCE AG, priority 2007, published 2010)

Tests used:
[1] = tested on: cotton aphid (Aphis gossypii); experiment: Aphis gossypii test (APHIGO spray treatment); type: in vivo; conditions: cotton leaves sprayed, 6 days; for pest or weed control at 4 ppm / pest or weed control at 0.8 ppm: Aphis gossypii, 144 h, read-out: Kill in % after 6 days a.i.; for pest or weed control at 4 ppm: 4 ppm a.i. alone; for pest or weed control at 0.8 ppm: 0.8 ppm a.i. alone
Protocol: Aphis gossypii Test (APHIGO Spray Treatment)
(§1) Solvent: 7 parts by weight of dimethylformamide
(§2) Emulsifier: 2 parts by weight of alkylaryl polyglycol ether
(§3) To prepare a ready-to-use active ingredient formulation, 1 part by weight of active ingredient is mixed with the specified amounts of solvent and emulsifier and the concentrate is diluted with emulsifier-containing water to the desired concentration. In the case that addition of ammonium salts, penetrants, or ammonium salts and penetrants is required, they are pipetted in each case into the finished preparation solution after dilution in a concentration of 1000 ppm each.
Cotton leaves (Gossypium hirsutum) highly infested by the cotton aphid (Aphis gossypii) are sprayed with an active ingredient formulation with the desired concentration.
After the desired period, the kill rate in % is determined. 100% means that all aphids have been killed; 0% means that no aphids have been killed.

[2] = tested on: green peach aphid (Myzus persicae); experiment: Myzus persicae test (MYZUPE); type: in vivo; conditions: pepper plants sprayed, 6 days; for pest or weed control at 0.8 ppm: 0.8 ppm a.i. alone; for pest or weed control at 4 ppm: 4 ppm a.i. alone; for pest or weed control at 20 ppm: 20 ppm a.i. alone
Protocol: Myzus persicae Test (MYZUPE)
as §1, §2
as §3, with “prepare an appropriate” for “prepare a ready-to-use”, “the given” for “the specified”, “and emulsifier,” for “and emulsifier”, “are pippetted” for “are pipetted”
Pepper plants (Capsicum annuum) highly infested by the green peach aphid (Myzus persicaei) are treated by spraying with the active ingredient formulation in the desired concentration.
After the desired time, the kill rate in % is determined. 100% means that all animals have been killed; 0% means that no animals have been killed.

[3] = 4 ppm a.i. + AMS and RME 1000 ppm each
[4] = 4 ppm a.i. + ammonium sulphate 1000 ppm
[5] = 4 ppm a.i. + rapeseed oil methyl ester 1000 ppm
[6] = 0.8 ppm a.i. + AMS and RME 1000 ppm each
[7] = 0.8 ppm a.i. + ammonium sulphate 1000 ppm
[8] = 0.8 ppm a.i. + rapeseed oil methyl ester 1000 ppm
[9] = Myzus persicae, 144 h, read-out: Kill in % after 6 days a.i.
[10] = 20 ppm a.i. + AMS and RME 1000 ppm each
[11] = 20 ppm a.i. + ammonium sulphate 1000 ppm
[12] = 20 ppm a.i. + rapeseed oil methyl ester 1000 ppm

CN(Cc1cnc(Cl)c(Cl)c1)C1=CC(=O)OC1 [Compound I-10, 4-{[(5,6-dichloropyrid-3-yl)methyl](methyl)amino}furan-2(5H)-one]
Kill in % after 6 days +AMS + RME [1, 3]: 99%
Kill in % after 6 days +AMS [1, 4]: 99%
Kill in % after 6 days +RME [1, 5]: 85%
pest or weed control at 4 ppm [1]: 65%
Kill in % after 6 days +AMS + RME [2, 6]: 99%
Kill in % after 6 days +AMS [2, 7]: 0%
Kill in % after 6 days +RME [2, 8]: 90%
pest or weed control at 0.8 ppm [2, 9]: 0%

CN(Cc1cnc(Br)c(F)c1)C1=CC(=O)OC1 [Compound I-11, 4-{[(6-bromo-5-fluoropyrid-3-yl)methyl](methyl)amino}furan-2(5H)-one]
Kill in % after 6 days +AMS + RME [1, 6]: 99%
Kill in % after 6 days +AMS [1, 7]: 55%
Kill in % after 6 days +RME [1, 8]: 95%
pest or weed control at 0.8 ppm [1]: 15%
Kill in % after 6 days +AMS + RME ([2]; 0.16 ppm a.i. + AMS and RME 1000 ppm each): 90%
Kill in % after 6 days +AMS ([2]; 0.16 ppm a.i. + ammonium sulphate 1000 ppm): 0%
Kill in % after 6 days +RME ([2]; 0.16 ppm a.i. + rapeseed oil methyl ester 1000 ppm): 0%
Kill in % after 6 days +AMS + RME [2, 6]: 99%
Kill in % after 6 days +AMS [2, 7]: 95%
Kill in % after 6 days +RME [2, 8]: 99%
pest or weed control at 0.16 ppm ([2]; Myzus persicae, 144 h, 0.16 ppm a.i. alone, read-out: Kill in % after 6 days a.i.): 0%
pest or weed control at 0.8 ppm [2, 9]: 85%

O=C1C=C(N(Cc2cnc(Br)c(F)c2)C2CC2)CO1 [Compound I-12, 4-{[(6-bromo-5-fluoropyrid-3-yl)methyl](cyclopropyl)amino}furan-2(5H)-one]
Kill in % after 6 days +AMS + RME [1, 6]: 25%
Kill in % after 6 days +AMS [1, 7]: 5%
Kill in % after 6 days +RME [1, 8]: 10%
Kill in % after 6 days +AMS + RME [1, 3]: 75%
Kill in % after 6 days +AMS [1, 4]: 80%
Kill in % after 6 days +RME [1, 5]: 85%
pest or weed control at 0.8 ppm [1]: 0%
pest or weed control at 4 ppm [1]: 55%
Kill in % after 6 days +AMS + RME [2, 6]: 45%
Kill in % after 6 days +AMS [2, 7]: 0%
Kill in % after 6 days +RME [2, 8]: 10%
Kill in % after 6 days +AMS + RME [2, 3]: 95%
Kill in % after 6 days +AMS [2, 4]: 95%
Kill in % after 6 days +RME [2, 5]: 100%
pest or weed control at 0.8 ppm [2, 9]: 5%
pest or weed control at 4 ppm [2, 9]: 85%

O=C1C=C(N(Cc2cnc(Cl)c(F)c2)C2CC2)CO1 [Compound I-13, 4-{[(6-chloro-5-fluoropyrid-3-yl)methyl](cyclopropyl)amino}furan-2(5H)-one]
Kill in % after 6 days +AMS + RME [1, 6]: 20%
Kill in % after 6 days +AMS [1, 7]: 5%
Kill in % after 6 days +RME [1, 8]: 5%
Kill in % after 6 days +AMS + RME [1, 3]: 75%
Kill in % after 6 days +AMS [1, 4]: 65%
Kill in % after 6 days +RME [1, 5]: 75%
pest or weed control at 0.8 ppm [1]: 0%
pest or weed control at 4 ppm [1]: 80%
Kill in % after 6 days +AMS + RME [2, 6]: 90%
Kill in % after 6 days +AMS [2, 7]: 5%
Kill in % after 6 days +RME [2, 8]: 35%
pest or weed control at 0.8 ppm [2, 9]: 5%

O=C1C=C(N(CCF)Cc2cnc(Cl)c(Cl)c2)CO1 [Compound I-14, 4-{[(5,6-dichloropyrid-3-yl)methyl](2-fluoroethyl)amino}furan-2(5H)-one]
Kill in % after 6 days +AMS + RME [1, 6]: 70%
Kill in % after 6 days +AMS [1, 7]: 5%
Kill in % after 6 days +RME [1, 8]: 40%
pest or weed control at 0.8 ppm [1]: 0%
Kill in % after 6 days +AMS + RME [2, 3]: 95%
Kill in % after 6 days +AMS [2, 4]: 60%
Kill in % after 6 days +RME [2, 5]: 95%
pest or weed control at 4 ppm [2, 9]: 25%

O=C1C=C(N(Cc2cnc(Br)c(F)c2)CC(F)F)CO1 [Compound I-16, 4-{[(6-bromo-5-fluoropyrid-3-yl)methyl](2,2-difluoroethyl)amino}-furan-2(5H)-one]
Kill in % after 6 days +AMS + RME [1, 6]: 5%
Kill in % after 6 days +AMS [1, 7]: 10%
Kill in % after 6 days +RME [1, 8]: 10%
Kill in % after 6 days +AMS + RME [1, 3]: 90%
Kill in % after 6 days +AMS [1, 4]: 95%
Kill in % after 6 days +RME [1, 5]: 98%
pest or weed control at 0.8 ppm [1]: 0%
pest or weed control at 4 ppm [1]: 80%
Kill in % after 6 days +AMS + RME [2, 6]: 10%
Kill in % after 6 days +AMS [2, 7]: 0%
Kill in % after 6 days +RME [2, 8]: 10%
Kill in % after 6 days +AMS + RME [2, 3]: 100%
Kill in % after 6 days +AMS [2, 4]: 99%
Kill in % after 6 days +RME [2, 5]: 98%
pest or weed control at 0.8 ppm [2, 9]: 5%
pest or weed control at 4 ppm [2, 9]: 95%

O=C1C=C(N(Cc2cnc(Cl)c(F)c2)CC(F)F)CO1 [Compound I-17, 4-{[(6-chloro-5-fluoropyrid-3-yl)methyl](2,2-difluoroethyl)amino}furan-2(5H)-one]
Kill in % after 6 days +AMS + RME [1, 6]: 40%
Kill in % after 6 days +AMS [1, 7]: 20%
Kill in % after 6 days +RME [1, 8]: 40%
pest or weed control at 0.8 ppm [1]: 0%
Kill in % after 6 days +AMS + RME [2, 6]: 25%
Kill in % after 6 days +AMS [2, 7]: 5%
Kill in % after 6 days +RME [2, 8]: 35%
Kill in % after 6 days +AMS + RME [2, 3]: 100%
Kill in % after 6 days +AMS [2, 4]: 99%
Kill in % after 6 days +RME [2, 5]: 100%
pest or weed control at 0.8 ppm [2, 9]: 0%
pest or weed control at 4 ppm [2, 9]: 95%

CN(Cc1ccc(Cl)nc1)C1=CC(=O)CC1 [Compound I-18, 3-{[(6-chloropyrid-3-yl)methyl](methyl)amino}cyclopent-2-en-1-one]
Kill in % after 6 days +AMS + RME [1, 6]: 90%
Kill in % after 6 days +AMS [1, 7]: 50%
Kill in % after 6 days +RME [1, 8]: 75%
pest or weed control at 0.8 ppm [1]: 65%
Kill in % after 6 days +AMS + RME [2, 6]: 70%
Kill in % after 6 days +AMS [2, 7]: 0%
Kill in % after 6 days +RME [2, 8]: 98%
Kill in % after 6 days +AMS + RME [2, 3]: 100%
Kill in % after 6 days +AMS [2, 4]: 95%
Kill in % after 6 days +RME [2, 5]: 100%
pest or weed control at 0.8 ppm [2, 9]: 25%
pest or weed control at 4 ppm [2, 9]: 80%

O=C1C=C(N(Cc2ccc(Cl)nc2)C2CC2)CC1 [Compound I-19, 3-{[(6-chloropyrid-3-yl)methyl](cyclopropyl)amino}cyclopent-2-en-1-one]
Kill in % after 6 days +AMS + RME [1, 6]: 50%
Kill in % after 6 days +AMS [1, 7]: 0%
Kill in % after 6 days +RME [1, 8]: 40%
Kill in % after 6 days +AMS + RME [1, 3]: 80%
Kill in % after 6 days +AMS [1, 4]: 40%
Kill in % after 6 days +RME [1, 5]: 85%
pest or weed control at 0.8 ppm [1]: 0%
pest or weed control at 4 ppm [1]: 15%
Kill in % after 6 days +AMS + RME [2, 10]: 100%
Kill in % after 6 days +AMS [2, 11]: 80%
Kill in % after 6 days +RME [2, 12]: 98%
pest or weed control at 20 ppm [2, 9]: 80%

CN(Cc1cccnc1)C1=CC(=O)OC1 [Compound I-21, 4-[methyl(pyrid-3-ylmethyl)amino]furan-2(5H)-one]
Kill in % after 6 days +AMS + RME [1, 3]: 45%
Kill in % after 6 days +AMS [1, 4]: 5%
Kill in % after 6 days +RME [1, 5]: 50%
pest or weed control at 4 ppm [1]: 10%
Kill in % after 6 days +AMS + RME ([2]; 100 ppm a.i. + AMS and RME 1000 ppm each): 65%
Kill in % after 6 days +AMS ([2]; 100 ppm a.i. + ammonium sulphate 1000 ppm): 70%
Kill in % after 6 days +RME ([2]; 100 ppm a.i. + rapeseed oil methyl ester 1000 ppm): 90%
pest or weed control at 100 ppm ([2]; Myzus persicae, 144 h, 100 ppm a.i. alone, read-out: Kill in % after 6 days a.i.): 50%

O=C1C=C(N(Cc2ccc(F)nc2)C2CC2)CO1 [Compound I-22, 4-{cyclopropyl[(6-fluoropyrid-3-yl)methyl]amino}furan-2(5H)-one]
Kill in % after 6 days +AMS + RME [1, 6]: 45%
Kill in % after 6 days +AMS [1, 7]: 20%
Kill in % after 6 days +RME [1, 8]: 30%
Kill in % after 6 days +AMS + RME [1, 3]: 65%
Kill in % after 6 days +AMS [1, 4]: 70%
Kill in % after 6 days +RME [1, 5]: 55%
pest or weed control at 0.8 ppm [1]: 25%
pest or weed control at 4 ppm [1]: 60%
Kill in % after 6 days +AMS + RME [2, 3]: 80%
Kill in % after 6 days +AMS [2, 4]: 0%
Kill in % after 6 days +RME [2, 5]: 70%
Kill in % after 6 days +AMS + RME [2, 10]: 90%
Kill in % after 6 days +AMS [2, 11]: 80%
Kill in % after 6 days +RME [2, 12]: 85%
pest or weed control at 4 ppm [2, 9]: 5%
pest or weed control at 20 ppm [2, 9]: 65%

CN(Cc1ccc(C(F)(F)F)nc1)C1=CC(=O)OC1 [Compound I-23, 4-(methyl {[6-(trifluoromethyl)pyrid-3-yl]methyl}amino)furan-2(5H)-one]
Kill in % after 6 days +AMS + RME [1, 6]: 25%
Kill in % after 6 days +AMS [1, 7]: 15%
Kill in % after 6 days +RME [1, 8]: 50%
pest or weed control at 0.8 ppm [1]: 10%
Kill in % after 6 days +AMS + RME [2, 6]: 80%
Kill in % after 6 days +AMS [2, 7]: 10%
Kill in % after 6 days +RME [2, 8]: 75%
pest or weed control at 0.8 ppm [2, 9]: 35%
